From ChEMBL document CHEMBL1909046, “DrugMatrix in vitro pharmacology data” come the findings set out here.

For one assay, the target named is Vasopressin V1a receptor (Homo sapiens, UniProt P37288). In kind it is cell membranes, Membrane. Particulars: hek293. Also: in other assays of this panel Not Active means under 50% inhibition at 10 µM.
Assay [1] can be described thus: DRUGMATRIX: Sigma2 radioligand binding (ligand: [3H] Ifenprodil). In kind it is cell membranes, Rattus norvegicus, Wistar, Brain, Membrane. Particulars: Not Active = under 50% inhibition at 10 µM.
In assay [2] the target is T1, Type-2 angiotensin II receptor (Homo sapiens, UniProt P50052). Also: in other assays of this panel Not Active means under 50% inhibition at 10 µM.
T1 sequence (P50052 whole entry): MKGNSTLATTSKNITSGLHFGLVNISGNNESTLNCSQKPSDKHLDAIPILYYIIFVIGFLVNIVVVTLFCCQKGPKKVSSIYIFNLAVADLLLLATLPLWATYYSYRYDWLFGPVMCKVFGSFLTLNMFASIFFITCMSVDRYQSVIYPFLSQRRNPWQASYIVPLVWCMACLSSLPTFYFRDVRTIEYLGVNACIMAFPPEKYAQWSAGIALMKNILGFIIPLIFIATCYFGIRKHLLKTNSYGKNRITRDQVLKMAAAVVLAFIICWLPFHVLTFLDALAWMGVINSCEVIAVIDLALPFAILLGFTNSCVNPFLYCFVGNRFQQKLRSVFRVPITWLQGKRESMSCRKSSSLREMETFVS
In kind it is cell-based. Particulars: cho-k1.

The nature of assay [3]: DRUGMATRIX: ATPase, Na+/K+ enzyme inhibition (substrate: ATP). In kind it is tissue-based, Sus scrofa, Heart. Particulars: Not Active = under 50% inhibition at 10 µM.
In assay [4] the target is T2, Receptor-type tyrosine-protein phosphatase C (Homo sapiens, UniProt P08575).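 Also: inhibition of CD45 enzyme activity measured using DiFMUP as substrate; in other assays of this panel Not Active means under 50% inhibition at 10 µM.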
T2 sequence (P08575 whole entry): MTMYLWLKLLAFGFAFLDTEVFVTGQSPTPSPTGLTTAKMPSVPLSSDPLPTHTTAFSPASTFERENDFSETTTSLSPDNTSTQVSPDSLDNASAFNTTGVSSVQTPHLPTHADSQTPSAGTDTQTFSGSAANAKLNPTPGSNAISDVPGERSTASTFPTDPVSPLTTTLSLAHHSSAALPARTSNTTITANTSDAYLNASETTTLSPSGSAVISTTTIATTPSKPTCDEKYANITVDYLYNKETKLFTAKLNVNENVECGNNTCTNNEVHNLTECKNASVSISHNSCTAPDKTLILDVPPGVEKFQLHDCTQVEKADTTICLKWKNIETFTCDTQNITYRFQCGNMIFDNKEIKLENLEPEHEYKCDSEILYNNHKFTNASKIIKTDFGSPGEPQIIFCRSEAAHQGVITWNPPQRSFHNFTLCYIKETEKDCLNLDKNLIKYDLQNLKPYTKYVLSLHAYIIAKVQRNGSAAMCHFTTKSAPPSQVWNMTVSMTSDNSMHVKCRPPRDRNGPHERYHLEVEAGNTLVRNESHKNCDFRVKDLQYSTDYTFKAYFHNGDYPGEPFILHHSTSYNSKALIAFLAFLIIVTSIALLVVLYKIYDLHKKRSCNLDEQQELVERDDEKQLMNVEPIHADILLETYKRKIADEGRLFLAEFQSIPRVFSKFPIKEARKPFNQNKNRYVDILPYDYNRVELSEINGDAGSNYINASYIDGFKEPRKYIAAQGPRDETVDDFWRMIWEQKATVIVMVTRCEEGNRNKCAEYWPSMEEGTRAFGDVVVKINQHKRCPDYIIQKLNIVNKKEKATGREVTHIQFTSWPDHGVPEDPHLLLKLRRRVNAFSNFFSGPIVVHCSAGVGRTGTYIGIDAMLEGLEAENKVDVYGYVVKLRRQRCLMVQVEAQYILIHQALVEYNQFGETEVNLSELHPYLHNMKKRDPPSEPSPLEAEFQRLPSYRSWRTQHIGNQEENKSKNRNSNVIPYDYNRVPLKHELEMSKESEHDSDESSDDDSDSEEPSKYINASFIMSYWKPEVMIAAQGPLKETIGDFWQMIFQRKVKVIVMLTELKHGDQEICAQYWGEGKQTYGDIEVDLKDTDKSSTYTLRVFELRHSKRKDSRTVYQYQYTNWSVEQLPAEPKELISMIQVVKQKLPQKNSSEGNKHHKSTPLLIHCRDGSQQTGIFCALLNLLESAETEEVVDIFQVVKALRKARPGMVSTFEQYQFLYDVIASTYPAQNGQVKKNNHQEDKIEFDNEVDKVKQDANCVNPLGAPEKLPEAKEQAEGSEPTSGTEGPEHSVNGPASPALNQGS
On the set-up: species or system Escherichia coli.

Assay [5] addresses Kappa-type opioid receptor (Homo sapiens, UniProt P41145). Briefly: DRUGMATRIX: Opiate kappa (OP2, KOP) radioligand binding (ligand: [3H] Diprenorphine). In kind it is cell membranes, HEK293, Membrane. Particulars: hek293; Not Active = under 50% inhibition at 10 µM.
For a further assay, the target named is T3, Adenosine receptor A3 (Homo sapiens, UniProt P0DMS8).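 Also: radioligand binding assay with AB-MECA serving as the labeled ligand; in other assays of this panel Not Active means under 50% inhibition at 10 µM.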
T3 sequence (P0DMS8 whole entry): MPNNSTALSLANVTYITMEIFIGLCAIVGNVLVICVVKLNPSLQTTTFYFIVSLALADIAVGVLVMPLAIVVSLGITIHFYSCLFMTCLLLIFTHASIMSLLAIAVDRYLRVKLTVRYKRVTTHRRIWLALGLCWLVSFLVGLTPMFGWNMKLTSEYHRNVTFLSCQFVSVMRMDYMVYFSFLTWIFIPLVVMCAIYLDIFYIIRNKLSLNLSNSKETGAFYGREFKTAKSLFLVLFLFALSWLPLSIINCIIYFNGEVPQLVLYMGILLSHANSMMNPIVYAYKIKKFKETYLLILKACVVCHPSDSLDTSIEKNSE
In kind it is cell membranes, CHO-K1, Membrane.

Usually IC50 stands for the point on the concentration scale where inhibition reaches its midpoint. The term Ki denotes a dissociation constant, usually derived from enzyme kinetics or from competition with a known ligand.

Chain of Kappa-type opioid receptor (P41145 whole entry): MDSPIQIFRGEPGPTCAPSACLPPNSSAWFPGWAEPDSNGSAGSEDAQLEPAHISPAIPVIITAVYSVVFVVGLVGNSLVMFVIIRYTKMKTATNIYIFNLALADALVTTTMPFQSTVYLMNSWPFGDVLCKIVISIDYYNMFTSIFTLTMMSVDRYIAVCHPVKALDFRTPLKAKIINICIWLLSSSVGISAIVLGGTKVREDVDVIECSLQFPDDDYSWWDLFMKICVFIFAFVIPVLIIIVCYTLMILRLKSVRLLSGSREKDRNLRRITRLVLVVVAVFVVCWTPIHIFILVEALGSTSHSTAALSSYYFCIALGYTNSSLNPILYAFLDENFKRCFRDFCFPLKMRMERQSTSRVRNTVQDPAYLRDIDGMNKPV
Chain of Vasopressin V1a receptor (P37288 whole entry): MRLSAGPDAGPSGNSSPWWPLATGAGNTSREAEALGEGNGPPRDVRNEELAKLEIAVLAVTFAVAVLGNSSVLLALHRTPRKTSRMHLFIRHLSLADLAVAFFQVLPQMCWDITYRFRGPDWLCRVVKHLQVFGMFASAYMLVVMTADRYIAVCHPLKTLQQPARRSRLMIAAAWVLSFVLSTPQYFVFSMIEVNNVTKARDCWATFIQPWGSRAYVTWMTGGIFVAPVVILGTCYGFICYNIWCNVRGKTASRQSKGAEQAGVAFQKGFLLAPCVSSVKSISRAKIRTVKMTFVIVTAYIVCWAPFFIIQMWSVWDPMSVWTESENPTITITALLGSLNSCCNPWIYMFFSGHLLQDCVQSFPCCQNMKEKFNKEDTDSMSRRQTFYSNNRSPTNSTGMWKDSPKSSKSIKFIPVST

Take `NC(=O)NC(=O)Cc1ccccc1` [PHENACEMIDE]: the 50% inhibitory concentration (IC50) result (at Vasopressin V1a receptor; in assay [1]; in assay [2]; in assay [3]; in assay [4]; in assay [5]) was “Not Active” throughout. In addition, the IC50 result against Adenosine receptor A3 (cho-k1) is “Not Active”. Moreover, the Ki entry in assay [1] and in assay [3] was “Not Active” in each case.

In the case of `O=C1c2ccccc2C(=O)C1c1ccccc1` [PHENINDIONE], the IC50 entry (against Vasopressin V1a receptor; in assay [1]; in assay [2]; in assay [3]; in assay [4]; in assay [5]) was “Not Active” each time. Moreover, on Adenosine receptor A3 (cho-k1), the IC50 entry was “Not Active”. The Ki entry in assay [1] and in assay [3] was “Not Active” in each case.

Take `CCC1(c2ccccc2)C(=O)NC(=O)NC1=O` [PHENOBARBITAL]: the IC50 entry (against Vasopressin V1a receptor; in assay [1]; in assay [2]; in assay [3]; in assay [4]; in assay [5]) was “Not Active” throughout. For the same molecule, the IC50 result against Adenosine receptor A3 (cho-k1) is “Not Active”. Besides, the Ki result in assay [1] and in assay [3] was “Not Active” throughout.

Regarding `Oc1ccccc1` [PHENOL], the IC50 result (against Vasopressin V1a receptor; in assay [1]; in assay [2]; in assay [3]; in assay [4]; in assay [5]) was “Not Active” in each case. Also, at Adenosine receptor A3 (cho-k1), the IC50 result is recorded as “Not Active”. Further, the Ki entry in assay [1] and in assay [3] was “Not Active” each time.

Regarding `c1ccc2c(c1)Nc1ccccc1S2` [PHENOTHIAZINE], the IC50 result (on Vasopressin V1a receptor; in assay [1]; in assay [2]; in assay [3]; in assay [4]; in assay [5]) was “Not Active” in each case. For the same molecule, the IC50 on Adenosine receptor A3 (read-out: IC50) came to 25.6 µM. Besides, the inhibition constant (Ki) entry in assay [1] is “Not Active”; in assay [3], “Not Active”; on Adenosine receptor A3 (read-out: Ki), 14.5 µM.

With `CCN1CCN(C(=O)N[C@@H](C(=O)N[C@@H]2C(=O)N3[C@@H]2SC(C)(C)[C@@H]3C(=O)O)c2ccccc2)C(=O)C1=O` [PIPERACILLIN], the IC50 result (against Vasopressin V1a receptor; in assay [1]; in assay [2]; in assay [3]; in assay [4]; in assay [5]) was “Not Active” each time. The IC50 result against Adenosine receptor A3 (cho-k1) is “Not Active”. The Ki entry in assay [1] and in assay [3] was “Not Active” each time.

Regarding `COc1cc(NC(C)CCCN)c2ncccc2c1` (configuration not stated) [PRIMAQUINE], the IC50 result (on Vasopressin V1a receptor; in assay [1]; in assay [2]; in assay [3]; in assay [4]; in assay [5]) was “Not Active” throughout. The IC50 result at Adenosine receptor A3 (cho-k1) is on record as “Not Active”. For the same molecule, the Ki result in assay [1] and in assay [3] was “Not Active” in each case.

In the case of `CC(CN1c2ccccc2Sc2ccccc21)N(C)C` (configuration not stated) [PROMETHAZINE], the IC50 entry (on Vasopressin V1a receptor; in assay [1]; in assay [2]; in assay [3]; in assay [4]; in assay [5]) was “Not Active” in each case. On Adenosine receptor A3 (cho-k1), the IC50 entry is on record as “Not Active”. For the same molecule, the Ki entry in assay [1] and in assay [3] was “Not Active” each time.

As to `COc1ccc(C[C@H](N)C(=O)N[C@H]2[C@@H](O)[C@H](n3cnc4c(N(C)C)ncnc43)O[C@@H]2CO)cc1` [PUROMYCIN], the IC50 entry (against Vasopressin V1a receptor; in assay [1]; in assay [2]; in assay [3]; in assay [4]; in assay [5]) was “Not Active” throughout. Further, the IC50 entry against Adenosine receptor A3 (cho-k1) is “Not Active”. Besides, the Ki result in assay [1] and in assay [3] was “Not Active” each time.
